Experimental data: patent US20090186766A1, “Heteroaroyl-Substituted Alanines with a Herbicidal Action” (BASF SE, priority 2006, published 2009)

Assays:
Setaria viridis = assay: Greenhouse post-emergence herbicidal test; type: in vivo; conditions: application rate 1 kg/ha
Source text: (§1) The seeds of the test plants were sown separately for each species. For the post-emergence treatment, the test plants were first grown to a height of 3 to 15 cm, depending on the plant habit, and only then treated with the active compounds which had been suspended or emulsified in water. For this purpose, the test plants were either sown directly and grown in the same containers, or they were first grown separately as seedlings and transplanted into the test containers a few days prior to treatment. The rate of application for the post-emergence treatment was 1.0 kg/ha of a.s. (active substance). Depending on the species, the plants were kept at 10-25° C. or 20-35° C. The test period extended over 2 to 4 weeks. During this time, the plants were tended, and their response to the individual treatments was evaluated. Evaluation was carried out using a scale from 0 to 100. 100 means no emergence of the plants, or complete destruction of at least the aerial parts, and 0 means no damage, or normal course of growth. The plants used in the greenhouse experiments belonged to the following species: [table]

Chenopodium album = assay: Greenhouse post-emergence herbicidal test; type: in vivo
Source text: as §1, with “The rate of application for the post-emergence treatment was 1.0 kg/ha of a.s.” left out

Amaranthus retroflexus = assay: Greenhouse post-emergence herbicidal test; type: in vivo
Source text: as §1, with “The rate of application for the post-emergence treatment was 1.0 kg/ha of a.s.” left out

Galium aparine = assay: Greenhouse post-emergence herbicidal test; type: in vivo; conditions: application rate 0.25 kg/ha
Source text: as §1, with “The rate of application for the post-emergence treatment was 1.0 kg/ha of a.s.” left out

Row | SMILES | melting point [°C] | post-emergence action against Setaria viridis (Setaria viridis) | post-emergence action against Chenopodium album (Chenopodium album; application rate 1 kg/ha) | post-emergence action against Amaranthus retroflexus (Amaranthus retroflexus; application rate 1 kg/ha) | post-emergence action against Chenopodium album (Chenopodium album; application rate 0.25 kg/ha) | post-emergence action against Galium aparine (Galium aparine) | post-emergence action against Amaranthus retroflexus (Amaranthus retroflexus; application rate 0.25 kg/ha)
1 | CNC(=O)[C@H](NC(=O)c1cn(C)nc1C(F)(F)F)[C@H](CNC(=O)C(F)(F)F)c1ccccc1 (racemic) [Compound 4.17, 1-Methyl-N-{(1RS,2SR)-1-[(methylamino)carbonyl]-2-phenyl-3-(2,2,2-trifluoroacetylamino)propyl}-3-(trifluoromethyl)-1H-pyrazole-4-carboxamide] | 233 | – | – | – | – | – | –
2 | CNC(=O)[C@H](NC(=O)c1cn(C)nc1C(F)(F)F)[C@H](C[N+](=O)[O-])c1ccccc1 (racemic) [Compound 5.3, 1-Methyl-N-{(1RS,2SR)-1-[(methylamino)carbonyl]-3-nitro-2-phenylpropyl}-3-(trifluoromethyl)-1H-pyrazole-4-carboxamide] | 119 | – | – | – | very good | very good | very good
3 | CNC(=O)C(NC(=O)c1cn(C)nc1C(F)(F)F)C(COC(C)=O)c1ccccc1 (single isomer, unassigned) [Compound 3.7, 3-Methylcarbamoyl-3-[(1-methyl-3-trifluoromethyl-1H-pyrazole-4-carbonyl)amino]-2-phenylpropyl Acetate] | – | very good | very good | very good | – | – | –

The next lines start with results.

Row | melting point [°C] | SMILES | post-emergence action against Setaria viridis (Setaria viridis) | post-emergence action against Chenopodium album (Chenopodium album; application rate 1 kg/ha) | post-emergence action against Amaranthus retroflexus (Amaranthus retroflexus; application rate 1 kg/ha) | post-emergence action against Chenopodium album (Chenopodium album; application rate 0.25 kg/ha) | post-emergence action against Galium aparine (Galium aparine) | post-emergence action against Amaranthus retroflexus (Amaranthus retroflexus; application rate 0.25 kg/ha)
4 | 194 | CNC(=O)C(NC(=O)c1cn(C)nc1C(F)(F)F)C(CO)c1ccccc1 (racemic) [Compound 3.1, N-(3-hydroxy-1-methylcarbamoyl-2-phenyl-propyl)-1-methyl-3-trifluoromethyl-1H-pyrazole-4-carboxamide] | very good | very good | very good | – | – | –
5 | 202 | CNC(=O)C(NC(=O)c1cn(C)nc1C(F)(F)F)C(CO)c1ccccc1 (racemic) [Compound 3.2, N-(3-hydroxy-1-methylcarbamoyl-2-phenyl-propyl)-1-methyl-3-trifluoromethyl-1H-pyrazole-4-carboxamide] | very good | very good | very good | – | – | –
6 | 91 | CNC(=O)[C@@H](NC(=O)c1cn(C)nc1C(F)(F)F)[C@H](CN)c1ccccc1 (racemic) [Compound 4.5, N-{(1RS,2RS)-3-Amino-1-[(methylamino)carbonyl]-2-phenylpropyl}-1-methyl-3-(trifluoromethyl)-1H-pyrazole-4-carboxamide] | – | – | – | – | – | –
